{"source": "the OligoGym collection", "target": "IRF4", "details": "ASO", "note": "Values joined by “and” are separate entries in the source; they are usually repeats but may differ in a detail not shown here. Equal values may be shown once. After the bases stand the sugars from the 5' end (letter, count) and the backbone: PS all phosphorothioate, else s phosphorothioate and o phosphodiester by linkage. Methylation of C is not given here. e = 2'-O-(2-methoxyethyl) (MOE); k = constrained ethyl (cEt); d = 2'-deoxy (DNA)"}
{"sequence": "GTATGTAGCAATGTGA (sugars k3 d10 k3, PS)", "values": [{"measurement": "target mRNA inhibition", "setting": "SK-MEL-28, 4 µM", "value": 21, "unit": "%"}]}
{"sequence": "GTATTTATAACCGGTA (sugars k3 d10 k3, PS)", "values": [{"measurement": "target mRNA inhibition", "setting": "MM.1R, 0.0625 µM", "value": "-7% and 4% and -9%"}, {"measurement": "target mRNA inhibition", "setting": "MM.1R, 0.074 µM", "value": -19, "unit": "%"}, {"measurement": "target mRNA inhibition", "setting": "MM.1R, 0.222 µM", "value": 4, "unit": "%"}, {"measurement": "target mRNA inhibition", "setting": "MM.1R, 0.25 µM", "value": "8% and 9% and 21%"}, {"measurement": "target mRNA inhibition", "setting": "MM.1R, 0.666 µM", "value": 7, "unit": "%"}, {"measurement": "target mRNA inhibition", "setting": "MM.1R, 1 µM", "value": "34% and 36% and 37%"}, {"measurement": "target mRNA inhibition", "setting": "MM.1R, 2 µM", "value": 33, "unit": "%"}, {"measurement": "target mRNA inhibition", "setting": "MM.1R, 4 µM", "value": "77% and 74% and 75%"}, {"measurement": "target mRNA inhibition", "setting": "SK-MEL-28, 4 µM", "value": 67, "unit": "%"}]}
{"sequence": "GTATTTGTCGAGATCA (sugars k3 d10 k3, PS)", "values": [{"measurement": "target mRNA inhibition", "setting": "SK-MEL-28, 4 µM", "value": 59, "unit": "%"}]}
{"sequence": "GTCACCTGGCAACCAT (sugars k4 d8 k4, PS)", "values": [{"measurement": "target mRNA inhibition", "setting": "SK-MEL-28, 4 µM", "value": 41, "unit": "%"}]}
{"sequence": "GTCACGCAATGGCAAA (sugars k3 d10 k3, PS)", "values": [{"measurement": "target mRNA inhibition", "setting": "MM.1R, 1 µM", "value": -2, "unit": "%"}]}
{"sequence": "GTCCACTGAGTACAAA (sugars k3 d10 k3, PS)", "values": [{"measurement": "target mRNA inhibition", "setting": "SK-MEL-28, 4 µM", "value": 13, "unit": "%"}]}
{"sequence": "GTCCAGCTGGCTCCGC (sugars k3 d10 k3, PS)", "values": [{"measurement": "target mRNA inhibition", "setting": "SK-MEL-28, 4 µM", "value": 53, "unit": "%"}]}
{"sequence": "GTCCCCTCTACTTCAG (sugars k3 d10 k3, PS)", "values": [{"measurement": "target mRNA inhibition", "setting": "SK-MEL-28, 4 µM", "value": 41, "unit": "%"}]}
{"sequence": "GTCTACAGAACACAAG (sugars k3 d10 k3, PS)", "values": [{"measurement": "target mRNA inhibition", "setting": "SK-MEL-28, 4 µM", "value": 24, "unit": "%"}]}
{"sequence": "GTCTGAGTTGTACAGG (sugars k3 d10 k3, PS)", "values": [{"measurement": "target mRNA inhibition", "setting": "MM.1R, 1 µM", "value": "52% and 57%"}]}
{"sequence": "GTGAAGCATCCTTTCC (sugars k3 d10 k3, PS)", "values": [{"measurement": "target mRNA inhibition", "setting": "SK-MEL-28, 4 µM", "value": 63, "unit": "%"}]}
{"sequence": "GTGAGATGCGGAGGTT (sugars k3 d10 k3, PS)", "values": [{"measurement": "target mRNA inhibition", "setting": "MM.1R, 0.0625 µM", "value": 14, "unit": "%"}, {"measurement": "target mRNA inhibition", "setting": "MM.1R, 0.25 µM", "value": 12, "unit": "%"}, {"measurement": "target mRNA inhibition", "setting": "MM.1R, 1 µM", "value": 39, "unit": "%"}, {"measurement": "target mRNA inhibition", "setting": "MM.1R, 4 µM", "value": 66, "unit": "%"}]}
{"sequence": "GTGATGTCAGGTTTTC (sugars e1 k2 d9 k2 e2, PS)", "values": [{"measurement": "target mRNA inhibition", "setting": "MM.1R, 1 µM", "value": 48, "unit": "%"}]}
{"sequence": "GTGATGTCAGGTTTTC (sugars kkdddddddddkdkdk, PS)", "values": [{"measurement": "target mRNA inhibition", "setting": "MM.1R, 1 µM", "value": 27, "unit": "%"}]}
{"sequence": "GTGATGTCAGGTTTTC (sugars kkdddddddddkekek, PS)", "values": [{"measurement": "target mRNA inhibition", "setting": "MM.1R, 1 µM", "value": 40, "unit": "%"}]}
{"sequence": "GTGCAAAACCAGTACA (sugars k3 d10 k3, PS)", "values": [{"measurement": "target mRNA inhibition", "setting": "SK-MEL-28, 4 µM", "value": 33, "unit": "%"}]}
{"sequence": "GTGCAAGCCTCATTCA (sugars k3 d10 k3, PS)", "values": [{"measurement": "target mRNA inhibition", "setting": "MM.1R, 1 µM", "value": 19, "unit": "%"}]}
{"sequence": "GTGCAGACCTGAATAG (sugars k3 d10 k3, PS)", "values": [{"measurement": "target mRNA inhibition", "setting": "SK-MEL-28, 4 µM", "value": 14, "unit": "%"}]}
{"sequence": "GTGCTCATGGCTGATA (sugars k3 d10 k3, PS)", "values": [{"measurement": "target mRNA inhibition", "setting": "MM.1R, 1 µM", "value": 24, "unit": "%"}]}
{"sequence": "GTGCTTGCCAAGCCTA (sugars k3 d10 k3, PS)", "values": [{"measurement": "target mRNA inhibition", "setting": "MM.1R, 1 µM", "value": "27% and 36%"}]}
{"sequence": "GTGGAAACGAGAACGC (sugars k3 d10 k3, PS)", "values": [{"measurement": "target mRNA inhibition", "setting": "SK-MEL-28, 4 µM", "value": 3, "unit": "%"}]}
{"sequence": "GTGGAACTCTAGTGTC (sugars k3 d10 k3, PS)", "values": [{"measurement": "target mRNA inhibition", "setting": "SK-MEL-28, 4 µM", "value": 12, "unit": "%"}]}
{"sequence": "GTGGACACTTTTAGAG (sugars k3 d10 k3, PS)", "values": [{"measurement": "target mRNA inhibition", "setting": "SK-MEL-28, 4 µM", "value": 52, "unit": "%"}]}
{"sequence": "GTGTAATGTAGGGATA (sugars k3 d10 k3, PS)", "values": [{"measurement": "target mRNA inhibition", "setting": "SK-MEL-28, 4 µM", "value": 64, "unit": "%"}]}
{"sequence": "GTGTCTAAAGTCCCAT (sugars k3 d10 k3, PS)", "values": [{"measurement": "target mRNA inhibition", "setting": "MM.1R, 1 µM", "value": "18% and 28%"}]}
{"sequence": "GTGTGCTTGCCAAGCC (sugars kdddddddddkekeke, PS)", "values": [{"measurement": "target mRNA inhibition", "setting": "MM.1R, 1 µM", "value": "6% and 22%"}]}
{"sequence": "GTTAACAATATGCTTC (sugars k3 d10 k3, PS)", "values": [{"measurement": "target mRNA inhibition", "setting": "SK-MEL-28, 4 µM", "value": 25, "unit": "%"}]}
{"sequence": "GTTAAGTCCCATCTGT (sugars k3 d10 k3, PS)", "values": [{"measurement": "target mRNA inhibition", "setting": "SK-MEL-28, 4 µM", "value": 40, "unit": "%"}]}
{"sequence": "GTTACTCACGAGCACC (sugars k3 d10 k3, PS)", "values": [{"measurement": "target mRNA inhibition", "setting": "MM.1R, 1 µM", "value": -17, "unit": "%"}]}
{"sequence": "GTTCAAGACAAGGGTT (sugars k3 d10 k3, PS)", "values": [{"measurement": "target mRNA inhibition", "setting": "MM.1R, 1 µM", "value": 15, "unit": "%"}]}
{"sequence": "GTTCACAACAGAGCTG (sugars k3 d10 k3, PS)", "values": [{"measurement": "target mRNA inhibition", "setting": "MM.1R, 1 µM", "value": -16, "unit": "%"}]}
{"sequence": "GTTCACGAAACACAGT (sugars k3 d10 k3, PS)", "values": [{"measurement": "target mRNA inhibition", "setting": "SK-MEL-28, 4 µM", "value": 63, "unit": "%"}]}
{"sequence": "GTTCAGTGTGTTGACC (sugars k3 d10 k3, PS)", "values": [{"measurement": "target mRNA inhibition", "setting": "MM.1R, 1 µM", "value": 30, "unit": "%"}]}
{"sequence": "GTTCCAGGAGATATTA (sugars k3 d10 k3, PS)", "values": [{"measurement": "target mRNA inhibition", "setting": "SK-MEL-28, 4 µM", "value": 52, "unit": "%"}]}
{"sequence": "GTTCCTGTCACCTGGC (sugars k3 d10 k3, PS)", "values": [{"measurement": "target mRNA inhibition", "setting": "SK-MEL-28, 4 µM", "value": 49, "unit": "%"}]}
{"sequence": "GTTCTAGGGTCCTCCT (sugars k3 d10 k3, PS)", "values": [{"measurement": "target mRNA inhibition", "setting": "SK-MEL-28, 4 µM", "value": 50, "unit": "%"}]}
{"sequence": "GTTGAACCCATCTTGA (sugars k3 d10 k3, PS)", "values": [{"measurement": "target mRNA inhibition", "setting": "SK-MEL-28, 4 µM", "value": 16, "unit": "%"}]}
{"sequence": "GTTGACACAGGAGCCG (sugars k3 d10 k3, PS)", "values": [{"measurement": "target mRNA inhibition", "setting": "SK-MEL-28, 4 µM", "value": 53, "unit": "%"}]}
{"sequence": "GTTGGCTGGTCTTTGT (sugars kkdddddddddekeke, PS)", "values": [{"measurement": "target mRNA inhibition", "setting": "MM.1R, 1 µM", "value": 23, "unit": "%"}]}
{"sequence": "GTTGTAAATGAGTCGG (sugars k2 d9 e3 k2, PS)", "values": [{"measurement": "target mRNA inhibition", "setting": "H929, 0.00067 µM", "value": 6, "unit": "%"}, {"measurement": "target mRNA inhibition", "setting": "H929, 0.002 µM", "value": 21, "unit": "%"}, {"measurement": "target mRNA inhibition", "setting": "H929, 0.00667 µM", "value": 45, "unit": "%"}, {"measurement": "target mRNA inhibition", "setting": "H929, 0.02 µM", "value": 57, "unit": "%"}, {"measurement": "target mRNA inhibition", "setting": "H929, 0.04 µM", "value": 13, "unit": "%"}, {"measurement": "target mRNA inhibition", "setting": "KMS11, 0.2 µM", "value": "50% and 44%"}, {"measurement": "target mRNA inhibition", "setting": "MM.1R, 0.074 µM", "value": 26, "unit": "%"}, {"measurement": "target mRNA inhibition", "setting": "MM.1R, 0.222 µM", "value": 53, "unit": "%"}, {"measurement": "target mRNA inhibition", "setting": "MM.1R, 0.666 µM", "value": 76, "unit": "%"}, {"measurement": "target mRNA inhibition", "setting": "MM.1R, 1 µM", "value": 82, "unit": "%"}, {"measurement": "target mRNA inhibition", "setting": "MM.1R, 2 µM", "value": 93, "unit": "%"}]}
{"sequence": "GTTGTAAATGAGTCGG (sugars k3 d10 k3, PS)", "values": [{"measurement": "target mRNA inhibition", "setting": "SK-MEL-28, 4 µM", "value": "87% and 81%"}]}
{"sequence": "GTTTGTGAAGCATCCT (sugars k3 d10 k3, PS)", "values": [{"measurement": "target mRNA inhibition", "setting": "SK-MEL-28, 4 µM", "value": 65, "unit": "%"}]}
{"sequence": "GTTTTAAGAGGCGACT (sugars k3 d10 k3, PS)", "values": [{"measurement": "target mRNA inhibition", "setting": "SK-MEL-28, 4 µM", "value": 33, "unit": "%"}]}
{"sequence": "GTTTTTTGACTCAAGA (sugars k3 d10 k3, PS)", "values": [{"measurement": "target mRNA inhibition", "setting": "SK-MEL-28, 4 µM", "value": 67, "unit": "%"}]}
